US4131686A, “Novel benzylalcohol derivatives and processes for preparing the same” (Tanabe Seiyaku Co., Ltd., priority 1975, dated 1978)

Assays:
[1] = acute toxicity: 50% lethal dose (LD50) by oral administration to mice; conditions: mouse, in vivo
blood sugar = assay: blood sugar-lowering test: oral administration to mice prior to subcutaneous injection of glucose (one g/kg); assay type: in vivo; conditions: 100 mg/kg required; same conditions (mice, oral, s.c. glucose one g/kg)
blood-pressure = conditions: known cardiotonic compounds, U.S. Pat. 3869474 and Offenlegungsschrift 2420427; cited from earlier work
adrenergic β1 -receptor = conditions: known compounds, U.S. Pat. 3869474 and Offenlegungsschrift 2420427; cited from earlier work

| SMILES | LD50 [1] [mg/kg] | decrease in the blood sugar (blood sugar) [%] | influence upon blood-pressure (blood-pressure) | activation of adrenergic β1-receptor (adrenergic β1 -receptor) |
| --- | --- | --- | --- | --- |
| COc1ccc(CCNCC(O)c2ccccc2OC)cc1OC (racemic) [dl-α-(3,4-dimethoxyphenethylaminomethyl)-2-methoxybenzylalcohol] | ~580 |  |  |  |
| N=C(N)NC(=N)NCCc1ccccc1 [Phenformin, 1-phenethylbiguanide] |  | ~30 |  |  |
| COc1cc(CCNCC(O)c2ccc(O)c(O)c2)cc(OC)c1OC (stereo not drawn) [α-(3,4,5-trimethoxyphenethylaminomethyl)-3,4-dihydroxybenzylalcohol] |  |  | no substantial influence | selective activation |
| COc1ccc(CCNCC(O)c2ccc(O)c(O)c2)cc1OC (stereo not drawn) [α-(3,4-dimethoxyphenethylaminomethyl)-3,4-dihydroxybenzylalcohol] |  |  | no substantial influence | selective activation |
